pIC50: −log10 of the molar value. Counter-ions that a name gives are not always drawn.
Target: T1, Nav1.7 (or SCN9A) channel (Homo sapiens, UniProt Q15858)
T1 construct: expressed in transfected cells
Assay: Nav1.7 (hSCN9A) PatchXpress electrophysiology assay
Format: cell-based
Settings: estimated IC50 from single point electrophysiology data; PatchXpress platform; HEK cells expressing hSCN9A, held at V1/2 of inactivation; read-out: Nav1.7 EIC50
Description: The ability of the compounds of formula (I) to block the Nav1.7 (or SCN9A) channel were measured using the assay described below.
Human Embryonic Kidney (HEK) cells were transfected with an hSCN9A construct using lipofectamine reagent (Invitrogen), using standard techniques. Cells stably expressing the hSCN9A constructs were identified by their resistance to G-418 (400 μg/ml). Clones were screened for expression using the whole-cell voltage-clamp technique.
HEK cells stably transfected with hSCN9A were maintained in DMEM medium supplemented with 10% heat-inactivated fetal bovine serum and 400 μg/ml G-418 in an incubator at 37° C. with a humidified atmosphere of 10% CO2. For HTS, cells were harvested from flasks by trypsinization and replated in an appropriate multi-well plate (typically 96 or 384 wells/plate) such that confluence would be achieved within 24 hours of plating. For electrophysiological studies, cells were removed from the culture flask by brief trypsinization and re-plated at low density onto glass cover slips. Cells were typically used for electrophysiological experiments within 24 to 72 hours after plating.
Cover slips containing HEK cells expressing hSCN9A were placed in a bath on the stage of an inverted microscope and perfused (approximately 1 ml/minutes) with extracellular solution of the following composition: 138 mM NaCl, 2 mM CaCl2, 5.4 mM KCl, 1mM MgCl2, 10 mM glucose, and 10 mM HEPES, pH 7.4, with NaOH. […] The osmolarity of the extracellular and intracellular solutions was 300 mOsm/kg and 295 mOsm/kg, respectively. All recordings were made at room temperature (22-24° C.) using AXOPATCH 200B amplifiers and PCLAMP software (Axon Instruments, Burlingame, Calif.).
hSCN9A currents in HEK cells were measured using the whole-cell configuration of the patch-clamp technique (Hamill et al., 1981). Uncompensated series resistance was typically 2 to 5 mega ohms and >85% series resistance compensation was routinely achieved. As a result, voltage errors were negligible and no correction was applied. Current records were acquired at 20 to 50 KHz and filtered at 5 to 10 KHz.
HEK cells stably transfected with hSCN9A were viewed under Hoffman contrast optics and placed in front of an array of flow pipes emitting either control or compound-containing extracellular solutions. All compounds were dissolved in dimethyl sulfoxide to make 10 mM stock solutions, which were then diluted into extracellular solution to attain the final concentrations desired. […] The voltage-dependence of inactivation was determined by applying a series of depolarizing prepulses (8 sec long in 10 mV increments) from a negative holding potential. The voltage was then immediately stepped to 0 mV to assess the magnitude of the sodium current. Currents elicited at 0 mV were plotted as a function of prepulse potential to allow estimation of the voltage at which 50% of the channels were inactivated (midpoint of inactivation or V1/2). Compounds were tested for their ability to inhibit hSCN9A sodium channels by activating the channel with a 20 msec voltage step to 0 mV following an 8 second conditioning prepulse to the empirically determined V1/2. Compound effect (% inhibition) was determined by difference in current amplitude before and after application of test compounds. For ease of comparison, “estimated IC-50” (EIC50) values were calculated from single point electrophysiology data by the following equation, (tested concentration, uM)×(100-% inhibition/% inhibition). Inhibition values <20% and >80% were excluded from the calculation.
Electrophysiological assays were conducted with PatchXpress 7000 hardware and associated software (Molecular Devices Corp). All assay buffers and solutions were identical to those used in conventional whole-cell voltage clamp experiments described above. hSCN9A cells were grown as above to 50%-80% confluency and harvested by trypsinization. […]

T1 sequence (Q15858 whole entry): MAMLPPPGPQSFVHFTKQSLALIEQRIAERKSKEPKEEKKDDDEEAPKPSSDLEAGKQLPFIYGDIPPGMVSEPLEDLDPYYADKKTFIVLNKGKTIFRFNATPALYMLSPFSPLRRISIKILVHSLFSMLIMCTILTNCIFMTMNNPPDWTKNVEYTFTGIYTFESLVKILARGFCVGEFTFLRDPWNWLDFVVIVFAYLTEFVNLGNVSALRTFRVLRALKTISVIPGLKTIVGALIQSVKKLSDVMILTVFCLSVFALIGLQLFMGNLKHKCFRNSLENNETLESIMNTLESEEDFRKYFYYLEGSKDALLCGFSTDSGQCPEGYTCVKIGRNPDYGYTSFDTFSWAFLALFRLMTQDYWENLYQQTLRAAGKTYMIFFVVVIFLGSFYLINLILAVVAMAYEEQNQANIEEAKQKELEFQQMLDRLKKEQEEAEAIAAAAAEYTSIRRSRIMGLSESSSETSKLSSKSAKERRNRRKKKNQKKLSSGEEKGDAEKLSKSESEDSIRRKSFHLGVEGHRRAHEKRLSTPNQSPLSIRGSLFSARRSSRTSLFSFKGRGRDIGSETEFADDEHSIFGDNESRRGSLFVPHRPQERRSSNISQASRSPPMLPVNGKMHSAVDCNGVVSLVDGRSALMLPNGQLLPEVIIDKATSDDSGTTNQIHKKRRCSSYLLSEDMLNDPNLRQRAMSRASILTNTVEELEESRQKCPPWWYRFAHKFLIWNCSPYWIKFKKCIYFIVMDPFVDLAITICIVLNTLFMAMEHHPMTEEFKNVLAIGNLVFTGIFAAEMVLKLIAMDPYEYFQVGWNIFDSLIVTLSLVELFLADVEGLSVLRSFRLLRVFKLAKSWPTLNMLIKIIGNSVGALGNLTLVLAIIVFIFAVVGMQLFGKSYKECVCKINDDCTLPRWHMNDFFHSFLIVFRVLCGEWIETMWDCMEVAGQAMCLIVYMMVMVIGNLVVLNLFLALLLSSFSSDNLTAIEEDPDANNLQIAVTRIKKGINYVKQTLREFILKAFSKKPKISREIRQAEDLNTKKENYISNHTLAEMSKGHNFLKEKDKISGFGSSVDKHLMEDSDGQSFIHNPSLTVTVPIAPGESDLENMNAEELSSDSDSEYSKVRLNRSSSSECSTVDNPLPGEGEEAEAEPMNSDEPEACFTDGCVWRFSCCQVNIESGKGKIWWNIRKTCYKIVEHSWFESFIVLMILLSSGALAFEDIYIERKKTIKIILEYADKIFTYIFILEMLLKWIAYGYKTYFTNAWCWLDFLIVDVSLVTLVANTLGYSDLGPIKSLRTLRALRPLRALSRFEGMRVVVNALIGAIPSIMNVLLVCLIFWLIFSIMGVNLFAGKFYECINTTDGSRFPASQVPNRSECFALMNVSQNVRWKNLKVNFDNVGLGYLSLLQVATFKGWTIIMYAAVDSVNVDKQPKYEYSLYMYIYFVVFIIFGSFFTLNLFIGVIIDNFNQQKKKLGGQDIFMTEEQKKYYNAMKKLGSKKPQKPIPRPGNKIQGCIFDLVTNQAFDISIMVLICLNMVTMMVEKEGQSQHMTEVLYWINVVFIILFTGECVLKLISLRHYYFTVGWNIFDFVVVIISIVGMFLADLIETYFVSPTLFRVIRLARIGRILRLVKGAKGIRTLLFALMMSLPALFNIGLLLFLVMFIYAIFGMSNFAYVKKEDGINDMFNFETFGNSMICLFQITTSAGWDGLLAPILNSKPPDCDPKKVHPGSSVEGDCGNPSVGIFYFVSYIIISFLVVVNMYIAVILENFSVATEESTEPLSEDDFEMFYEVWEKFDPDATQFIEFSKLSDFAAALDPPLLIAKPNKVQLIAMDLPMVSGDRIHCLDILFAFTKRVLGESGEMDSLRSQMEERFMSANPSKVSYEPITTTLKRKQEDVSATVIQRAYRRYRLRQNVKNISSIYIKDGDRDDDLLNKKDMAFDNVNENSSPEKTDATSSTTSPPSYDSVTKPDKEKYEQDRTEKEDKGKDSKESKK

Row | Compound | pIC50
1 | COc1cc(Cl)ccc1Oc1ccc(C(=O)NS(N)(=O)=O)cc1 [Example 4, N-(aminosulfonyl)-4-(4-chloro-2-methoxyphenoxy)benzamide] | < 5.52
2 | CC(C)Oc1ncc(Oc2cc(F)c(C(=O)NS(=O)(=O)N(C)C)cc2F)cc1Cl [Example 30, 4-[(5-chloro-6-isopropoxypyridin-3-yl)oxy]-N-[(dimethylamino)sulfonyl]-2,5-difluorobenzamide] | 6.33
3 | COc1cccc(Oc2ccc(C(=O)NS(=O)(=O)N(C)C)cc2)c1 [Example 9, N-[(dimethylamino)sulfonyl[-4-(3-methoxyphenoxy)benzamidediethylamine salt] | < 4.52
4 | CC(Oc1ncc(Oc2cc(F)c(C(=O)NS(=O)(=O)N(C)C)cc2F)cc1Cl)C(F)(F)F (centres unmarked) [Example 36, 4-((5-chloro-6-((1,1,1-trifluoropropan-2-yl)oxy)pyridin-3-yl)oxy)-N-[(dimethylamino)sulfonyl]-2,5-difluorobenzamide] | 6.18
5 | CN(C)S(=O)(=O)NC(=O)c1cc(F)c(Oc2cc(C(F)(F)F)c(Cl)cn2)cc1F [Example 35, 4-((5-chloro-4-(trifluoromethyl)pyridin-2-yl)oxy)-N-(N,N-dimethylsulfamoyl)-2,5-difluorobenzamide] | 5.60
6 | C[C@@H]1CCCN1c1ncc(Oc2cc(F)c(C(=O)NS(=O)(=O)N(C)C)cc2F)cc1Cl [Example 29, 4-({5-chloro-6-[(2R)-2-methylpyrrolidin-1-yl]pyridine-3-yl}oxy)-N-[(dimethylamino)sulfonyl]-2,5-dfluorobenzamide formate salt] | 6.62
7 | CNS(=O)(=O)NC(=O)c1cc(F)c(Oc2cnc(OC(C)C)c(Cl)c2)cc1F [Example 31, 4-[(5-chloro-6-isopropoxypyridin-3-yl)oxy]-N-[(methylamino)sulfonyl]-2,5-difluorobenzamide] | 5.18
8 | NS(=O)(=O)NC(=O)c1ccc(Oc2ccc(Cl)cc2-c2ccnnc2)cc1 [Example 15, N-(aminosulfonyl)-4-(4-chloro-2-pyridazin-4-ylphenoxy)benzamide] | < 5.52
9 | [2H]C([2H])([2H])C([2H])(Oc1ncc(Oc2cc(F)c(C(=O)NS(=O)(=O)N(C)C)cc2F)cc1Cl)C([2H])([2H])[2H] [Example 17, 4-[(5-chloro-6-isopropoxypyridin-3-yl)oxy]-N-[(dimethylamino)sulfonyl]-2,5-difluorobenzamide-d7] | 6.70
10 | COc1cc(Cl)ccc1Oc1cc(F)c(C(=O)NS(=O)(=O)N(C)C)cc1F [Example 7, 4-(4-chloro-2-methoxvphenoxy)-N-[(dimethylamino)sulfonyl]-2,5-difluorobenzamide] | < 5.52
11 | CN(C)S(=O)(=O)NC(=O)c1cc(F)c(Oc2cnc(N3CCCC3)c(Cl)c2)cc1F [Example 26, 4-[(5-chloro-6-pyrrolidin-1-ylpyridin-3-yl)oxy]-N-[(dimethylamino)sulfonyl]-2,5-difluorobenzamide formate salt] | 6.32
12 | CN(C)S(=O)(=O)NC(=O)c1ccc(Oc2ccc(Cl)cc2-c2ccnnc2)cc1 [Example 16, 4-(4-chloro-2-pyridazin-4-ylphenoxy)-N-[(dimethylamino)sulfonyl]benzamide] | 5.31
13 | CC(C)N(C)c1ncc(Oc2cc(F)c(C(=O)NS(=O)(=O)N(C)C)cc2F)cc1Cl [Example 24, 4-({5-chloro-6-[isopropyl(methyl)amino]pyridine-3-yl}oxy)-N-[(dimethylamino)sulfonyl]-2,5-difluorobenzamide formate salt] | 6.18
14 | COc1ccccc1Oc1cc(F)c(C(=O)NS(=O)(=O)N(C)C)cc1Cl [Example 12, 5-chloro-N-[(dimethylamino)sulfonyl]-2-fluoro-4-(2-methoxyphenoxy)benzamide diethylamine salt] | < 6.00
15 | COc1cc(Cl)ccc1Oc1ccc(C(=O)NS(=O)(=O)N(C)C)cc1 [Example 5, 4-(4-chloro-2-methoxyphenoxy)-N-[(dimethylamino)sulfonyl]benzamide] | 5.15
16 | CN(C)S(=O)(=O)NC(=O)c1cc(F)c(Oc2cnc(OCC(F)(F)F)c(Cl)c2)cc1F [Example 34, 4-[(5-chloro-6-(2,2,2-trifluoroethoxy)pyridin-3-yl)oxy]-N-[(dimethylamino)sulfonyl]-2,5-difluorobenzamide diethylamine salt] | 6.23
17 | COc1cccc(Oc2cc(F)c(C(=O)NS(=O)(=O)N(C)C)cc2F)c1 [Example 14, N-[(dimethylamino)sulfonyl]-2,5-difluoro-4-(3-methoxyphenoxy)benzamide diethylamine salt] | 5.12
18 | CN(C)S(=O)(=O)NC(=O)c1ccc(Oc2ccc(Cl)c(C(F)(F)F)c2)cc1 [Example 1, 4-[4-Chloro-3-(trifluoromethyl)phenoxy]-N-[(dimethylamino)sulfonyl]benzamide diethylamine salt] | 5.59
19 | COc1cc(Cl)ccc1Oc1cc(F)c(C(=O)NS(N)(=O)=O)cc1F [Example 6, N-(aminosulfonyl)-4-(4-chloro-2-methoxvphenoxy)-2,5-difluorobenzamide] | 5.14
20 | CC(C)COc1ncc(Oc2ccc(C(=O)NS(N)(=O)=O)cc2)cc1Cl [Example 10, N-(aminosulfonyl)-4-[(5-chloro-6-isobutoxypyridin-3-yl)oxy]benzamide diethylamine salt] | 5.20
21 | COc1ccccc1Oc1ccc(C(=O)NS(=O)(=O)N(C)C)cc1 [Example 8, N-[(dimethylamino)sulfonyl]-4-(2-methoxyphenoxy)benzamide diethylamine salt] | < 4.52
22 | CC(C)COc1ncc(Oc2cc(F)c(C(=O)NS(=O)(=O)N(C)C)cc2F)cc1Cl [Example 2, 4-[(5-Chloro-6-isobutoxvpvridin-3yl)oxy]-N-[(dimethylamino)sulfonyl]2,5-difluorobenzamide diethylamine salt] | 6.89
23 | O=C(NS(=O)(=O)N1CCC1)c1cc(Cl)c(Oc2cnc(OCC(F)(F)C(F)F)c(Cl)c2)cc1F [Example 41, N-(azetidin-1-ylsulfonyl)-5-chloro-4-{[5-chloro-6-(2,2,3,3-tetrafluoropropoxy)pyridin-3-yl]oxy}-2-fluorobenzamide] | 7.00
24 | CNc1ncc(Oc2cc(F)c(C(=O)NS(=O)(=O)N(C)C)cc2F)cc1Cl [Example 25, 4-{[5-chloro-6-(methylamino)pyridine-3-yl]oxy}-N-[(dimethylamino)sulfonyl]-2,5-difluorobenzamide formate salt] | 5.01
25 | CN(C)c1ncc(Oc2cc(F)c(C(=O)NS(=O)(=O)N(C)C)cc2F)cc1Cl [Example 22, 4-{[5-chloro-6-(dimethylamino)pyridine-3-yl]oxy}-N-[(dimethylamino)sulfonyl]-2,5-difluorobenzamide formate salt] | 5.60
26 | CC(C)COc1ncc(Oc2ccc(C(=O)NS(=O)(=O)N(C)C)cc2)cc1Cl [Example 11, 4-[(5-chloro-6-isobutoxypyridin-3-yl)oxy]-N-[(dimethylamino)sulfonyl]benzamide diethylamine salt] | 5.68
27 | N#Cc1cc(C(=O)NS(N)(=O)=O)ccc1Oc1ccccc1-c1ccccc1 [Example 18, N-(aminosulfonyl)-4-(biphenyl-2-yloxy)-3-cyanobenzamide diethylamine salt] | 4.47
28 | CN(C)S(=O)(=O)NC(=O)c1cc(F)c(Oc2cnc(N3CCC(F)C3)c(Cl)c2)cc1F (centres unmarked) [Example 20, 4-{[5-chloro-6-(3-fluoropyrrolidin-1-yl)pyridine-3-yl]oxy}-N-[(dimethylamino)sulfonyl]-2,5-difluorobenzamide formate salt] | 5.92
29 | CN(C)S(=O)(=O)NC(=O)c1cc(F)c(Oc2cnc(OCC3CC3)c(Cl)c2)cc1F [Example 32, 4-[(5-chloro-6-(cyclopropylmethoxy)pyridin-3-yl)oxy]-N-[(dimethylamino)sulfonyl]-2,5-difluorobenzamide] | 6.54

From patent US20150291514A1, “N-Aminosulfonyl Benzamides” (Pfizer Limited, priority 2012, published 2015)
